Test results from patent EP4786487A1, “PEPTIDE” (Peptidream Inc, priority 2023, dated 2025).
Where two headings read alike, the source gives them in different places. Starred links: 1 amine or outer side, 2 acyl side, 3 side chain; linkers in the order of their positions; H or OH if unused. Positions of bridges follow the written chain, without caps; N, C: chain ends. Non-standard residues stand in square brackets, D forms with d. Residues, ends and D or L forms follow the SMILES beside them. *: point of attachment. X13 = O=C(O)c1ccc(-n2cc(C[C@H](N[*:1])C(=O)[*:2])c3ccccc32)cc1; X6 = CS(=O)(=O)c1ccc(-c2ccc(C[C@H](N[*:1])C(=O)[*:2])cc2)cc1; Phe(3-OCH2COOH) = N[C@@H](Cc1cccc(OCC(=O)O)c1)C(=O)O; Piperidine(4-CH2CH2CONH2) = NC(=O)CCC1CCN(*)CC1; Trp(6-OH) = N[C@@H](Cc1c[nH]c2cc(O)ccc12)C(=O)O; Phe(4-COOH) = N[C@@H](Cc1ccc(C(=O)O)cc1)C(=O)O; Trp(6-aza) = N[C@@H](Cc1c[nH]c2cnccc12)C(=O)O; Piperazinyl(4-CH2COOH) = O=C(O)CN1CCN(*)CC1; Piperidinyl(4-CH2COOH) = O=C(O)CC1CCN(*)CC1; Gly(decyl) = CCCCCCCCCC[C@H](N)C(=O)O; Gly(N(CH2)3COOH) = O=C(O)CCCNCC(=O)O; X1 = CCCCCCC[C@H](N[*:1])C(=O)[*:2]; NMeF = CN[C@@H](Cc1ccccc1)C(=O)O; NMeE = CN[C@@H](CCC(=O)O)C(=O)O; NMeA = CN[C@@H](C)C(=O)O; NEtG = CCNCC(=O)O; Sar = CNCC(=O)O

How the values were obtained:
Format in all cases: cell-based
GDF-11 = biological target: T1, GDF-11 (Homo sapiens, UniProt O95390); assay: Reporter gene assay for myostatin signaling in HepG2 cell line, Evaluation Procedure (1), GDF-11 inhibition; conditions: read-out: IC50 (Luciferase) GDF-11 HepG2
T1 construct: purchased R&D systems 1958-GD-G8/CF
T1 sequence (O95390 299-407): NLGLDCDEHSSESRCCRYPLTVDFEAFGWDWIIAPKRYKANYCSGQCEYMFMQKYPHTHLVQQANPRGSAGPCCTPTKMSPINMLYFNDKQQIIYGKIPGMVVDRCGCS
Method in brief: (§1)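 IC50 derived from One-Glo luciferase luminescence after 20–24 h at 37 °C. Peptides titrated 4-fold at 0.006–100 nmol/L against myostatin or 0.12–2000 nmol/L against GDF-11 in HepG2 cells carrying a transfected CAGA12-luciferase reporter, kept in 0.1% BSA EMEM.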

Myostatin [1] = assay: Reporter gene assay for myostatin signaling in HepG2 cell line, Evaluation Procedure (1), myostatin inhibition; conditions: GDF-11 IC50 versus Myostatin IC50
Method in brief: as §1

Myostatin [2] = biological target: T2, Myostatin (Homo sapiens, UniProt O14793); assay: as above; conditions: read-out: IC50 (Luciferase) Myostatin HepG2
T2 construct: active myostatin (also called mature myostatin) is a homodimer consisting of two C-terminal growth factor domains; purchased R&D systems 788-G8/CF
T2 sequence (O14793 267-375): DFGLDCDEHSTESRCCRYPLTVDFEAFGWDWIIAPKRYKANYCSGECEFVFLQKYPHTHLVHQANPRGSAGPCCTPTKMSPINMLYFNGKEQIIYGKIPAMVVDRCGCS
Method in brief: as §1

Row | IC50 (GDF-11; Method C: GDF-11 1 ng/mL) [nM] | IC50 (Myostatin [2]; Method C: Myostatin 1.5 ng/mL) [nM] | IC50 (GDF-11; Method D: GDF-11 1.5 ng/mL) [nM] | IC50 (Myostatin [2]; Method D: Myostatin 1.5 ng/mL) [nM] | SMILES | Selectivity (Myostatin [1]; Method C) | Selectivity (Myostatin [1]; Method D) | also measured
1 | 14.3 | 0.1 | – | – | CCCCCCCCCC[C@@H]1NC(=O)[C@H](Cc2ccccc2)N(C)C(=O)[C@H](CCCNC(=N)N)NC(=O)[C@H](Cc2ccc(C(=O)O)cc2)NC(=O)[C@H](Cc2cccc(OCC(=O)O)c2)NC(=O)[C@H]2CCCN2C(=O)[C@H]([C@@H](C)CC)NC(=O)[C@H](Cc2ccccc2)N(C)C(=O)[C@H](Cc2ccc(O)cc2)NC(=O)[C@H](Cc2ccc(-c3ccc(S(C)(=O)=O)cc3)cc2)NC(=O)[C@H](C)NC(=O)[C@H](C)NC(=O)CSC[C@H](C(=O)N2CCN(CC(=O)O)CC2)NC(=O)[C@H](Cc2ccccc2)N(C)C(=O)[C@H](CCC(=O)O)N(C)C1=O [Myostatin_99_v343] ({CH2CO}-AA[X6]Y[NMeF]I[dP][Phe(3-OCH2COOH)][Phe(4-COOH)]R[NMeF][Gly(decyl)][NMeE][NMeF][dC]-{Piperazinyl(4-CH2COOH)}; thioether N-15) | 137.1 | – | –
2 | 62.3 | 0.08 | – | – | CCCCCCCCCC[C@@H]1NC(=O)[C@H](Cc2ccccc2)N(C)C(=O)[C@H](CCCNC(=N)N)NC(=O)[C@H](Cc2ccc(C(=O)O)cc2)NC(=O)[C@H](Cc2cccc(OCC(=O)O)c2)NC(=O)[C@H]2CCCN2C(=O)[C@H]([C@@H](C)CC)NC(=O)[C@H](Cc2ccccc2)N(C)C(=O)[C@H](Cc2ccc(O)cc2)NC(=O)[C@H](Cc2c[nH]c3ccccc23)NC(=O)[C@H](C)NC(=O)[C@H](C)NC(=O)CSC[C@H](C(=O)N2CCC(CCC(N)=O)CC2)NC(=O)[C@H](Cc2ccccc2)N(C)C(=O)[C@H](CCC(=O)O)N(C)C1=O [Myostatin_99_v344] ({CH2CO}-AAWY[NMeF]I[dP][Phe(3-OCH2COOH)][Phe(4-COOH)]R[NMeF][Gly(decyl)][NMeE][NMeF][dC]-{Piperidine(4-CH2CH2CONH2)}; thioether N-15) | 812.6 | – | –

Further lines, the compound ahead of its results:

Row | SMILES | IC50 (GDF-11; Method C: GDF-11 1 ng/mL) [nM] | IC50 (Myostatin [2]; Method C: Myostatin 1.5 ng/mL) [nM] | IC50 (GDF-11; Method D: GDF-11 1.5 ng/mL) [nM] | IC50 (Myostatin [2]; Method D: Myostatin 1.5 ng/mL) [nM] | Selectivity (Myostatin [1]; Method C) | Selectivity (Myostatin [1]; Method D) | also measured
3 | CCCCCCCCCC[C@@H]1NC(=O)[C@H](Cc2ccccc2)N(C)C(=O)[C@H](CCCNC(=N)N)NC(=O)[C@H](Cc2ccc(C(=O)O)cc2)NC(=O)[C@H](Cc2cccc(OCC(=O)O)c2)NC(=O)CN(CC)C(=O)[C@H]([C@@H](C)CC)NC(=O)[C@H](Cc2ccccc2)N(C)C(=O)[C@H](Cc2ccc(O)cc2)NC(=O)[C@H](Cc2c[nH]c3cnccc23)NC(=O)[C@H](C)NC(=O)[C@H](C)NC(=O)CSC[C@H](C(=O)N2CCC(CC(=O)O)CC2)NC(=O)[C@H](Cc2ccccc2)N(C)C(=O)[C@H](CCC(=O)O)N(C)C1=O [Myostatin_99_v339] ({CH2CO}-AA[Trp(6-aza)]Y[NMeF]I[NEtG][Phe(3-OCH2COOH)][Phe(4-COOH)]R[NMeF][Gly(decyl)][NMeE][NMeF][dC]-{Piperidinyl(4-CH2COOH)}; thioether N-15) | – | – | – | – | – | – | IC50 (GDF-11; Method B: GDF-11 1 ng/mL): 128 nM; Selectivity (Myostatin [1]; Method B): 144.7; IC50 (Myostatin [2]; Method B: Myostatin 1 ng/mL): 0.89 nM
4 | CCCCCCCCCC[C@@H]1NC(=O)[C@H](Cc2ccccc2)N(C)C(=O)[C@H](CCCNC(=N)N)NC(=O)[C@H](Cc2ccc(C(=O)O)cc2)NC(=O)[C@H](Cc2cccc(OCC(=O)O)c2)NC(=O)CN(C)C(=O)[C@H]([C@@H](C)OC)NC(=O)[C@H](Cc2ccccc2)N(C)C(=O)[C@H](Cc2ccc(O)cc2)NC(=O)[C@H](Cc2c[nH]c3cnccc23)NC(=O)[C@H](C)NC(=O)[C@H](C)NC(=O)CSC[C@H](C(=O)N2CCC(CC(=O)O)CC2)NC(=O)[C@H](Cc2ccccc2)N(C)C(=O)[C@H](CCC(=O)O)N(C)C1=O [Myostatin_99_v341] ({CH2CO}-AA[Trp(6-aza)]Y[NMeF]T(Me)[Sar][Phe(3-OCH2COOH)][Phe(4-COOH)]R[NMeF][Gly(decyl)][NMeE][NMeF][dC]-{Piperidinyl(4-CH2COOH)}; thioether N-15) | – | – | – | – | – | – | IC50 (GDF-11; Method B: GDF-11 1 ng/mL): 132 nM; Selectivity (Myostatin [1]; Method B): 173.9; IC50 (Myostatin [2]; Method B: Myostatin 1 ng/mL): 0.76 nM
5 | CCCCCCCCCC[C@@H]1NC(=O)[C@H](Cc2ccccc2)N(C)C(=O)[C@H](CCCNC(=N)N)NC(=O)[C@H](Cc2ccc(C(=O)O)cc2)NC(=O)[C@H](Cc2cccc(OCC(=O)O)c2)NC(=O)CN(C)C(=O)[C@H]([C@@H](C)CC)NC(=O)[C@H](Cc2ccccc2)N(C)C(=O)[C@H](Cc2ccc(O)cc2)NC(=O)[C@H](Cc2c[nH]c3ccccc23)NC(=O)[C@H](C)NC(=O)[C@H](C)NC(=O)CSC[C@H](C(=O)N2CCC(CCC(N)=O)CC2)NC(=O)[C@H](Cc2ccccc2)N(C)C(=O)[C@H](CCC(=O)O)N(C)C1=O [Myostatin_99_v346] ({CH2CO}-AAWY[NMeF]I[Sar][Phe(3-OCH2COOH)][Phe(4-COOH)]R[NMeF][Gly(decyl)][NMeE][NMeF][dC]-{Piperidine(4-CH2CH2CONH2)}; thioether N-15) | 10.5 | 0.09 | – | – | 116.0 | – | –
6 | CCCCCCC[C@@H]1NC(=O)[C@H](Cc2ccccc2)N(C)C(=O)[C@H](CCCNC(=N)N)NC(=O)[C@H](Cc2ccc(C(=O)O)cc2)NC(=O)[C@H](Cc2cccc(OCC(=O)O)c2)NC(=O)[C@H](C)N(C)C(=O)[C@H]([C@@H](C)CC)NC(=O)[C@H](Cc2ccccc2)N(C)C(=O)[C@H](Cc2ccc(O)cc2)NC(=O)[C@H](Cc2cn(-c3ccc(C(=O)O)cc3)c3ccccc23)NC(=O)[C@H](C)NC(=O)CN(CCCC(=O)O)C(=O)CSC[C@H](C(=O)O)NC(=O)[C@H](Cc2ccccc2)N(C)C(=O)[C@H](C)N(C)C1=O [Myostatin_99_v372] ({CH2CO}-[Gly(N(CH2)3COOH)]A[X13]Y[NMeF]I[NMeA][Phe(3-OCH2COOH)][Phe(4-COOH)]R[NMeF][X1][NMeA][NMeF][dC]-OH; thioether N-15) | – | – | 7.08 | 0.09 | – | 76.611 | –
7 | CCCCCCCCCC[C@@H]1NC(=O)[C@H](Cc2ccccc2)N(C)C(=O)[C@H](CCCNC(=N)N)NC(=O)[C@H](Cc2ccc(C(=O)O)cc2)NC(=O)[C@H](Cc2cccc(OCC(=O)O)c2)NC(=O)[C@H]2CCCN2C(=O)[C@H]([C@@H](C)CC)NC(=O)[C@H](Cc2ccccc2)N(C)C(=O)[C@H](Cc2ccc(O)cc2)NC(=O)[C@H](Cc2c[nH]c3cc(O)ccc23)NC(=O)[C@H](C)NC(=O)[C@H](C)NC(=O)CSC[C@H](C(=O)N2CCC(CCC(N)=O)CC2)NC(=O)[C@H](Cc2ccccc2)N(C)C(=O)[C@H](CCC(=O)O)N(C)C1=O [Myostatin_99_v382] ({CH2CO}-AA[Trp(6-OH)]Y[NMeF]I[dP][Phe(3-OCH2COOH)][Phe(4-COOH)]R[NMeF][Gly(decyl)][NMeE][NMeF][dC]-{Piperidine(4-CH2CH2CONH2)}; thioether N-15) | – | – | 29.6 | 0.04 | – | 711.775 | –
8 | CCCCCCCCCC[C@@H]1NC(=O)[C@H](Cc2ccccc2)N(C)C(=O)[C@H](CCCNC(=N)N)NC(=O)[C@H](Cc2ccc(C(=O)O)cc2)NC(=O)[C@H](Cc2cccc(OCC(=O)O)c2)NC(=O)CN(CC)C(=O)[C@H]([C@@H](C)CC)NC(=O)[C@H](Cc2ccccc2)N(C)C(=O)[C@H](Cc2ccc(O)cc2)NC(=O)[C@H](Cc2c[nH]c3cc(O)ccc23)NC(=O)[C@H](C)NC(=O)[C@H](C)NC(=O)CSC[C@H](C(=O)N2CCC(CCC(N)=O)CC2)NC(=O)[C@H](Cc2ccccc2)N(C)C(=O)[C@H](CCC(=O)O)N(C)C1=O [Myostatin_99_v383] ({CH2CO}-AA[Trp(6-OH)]Y[NMeF]I[NEtG][Phe(3-OCH2COOH)][Phe(4-COOH)]R[NMeF][Gly(decyl)][NMeE][NMeF][dC]-{Piperidine(4-CH2CH2CONH2)}; thioether N-15) | – | – | 40.5 | 0.18 | – | 220.797 | –
